pIC50: −log10 of the molar value. Bounds are passed on as bounds.

In the test the test system is PKB Ser473 phosphorylation in Rat1-myr-HA-p110 alpha cells. Put plainly: Reverse protein array, PKB Ser473 phosphorylation in Rat1-myr-HA-p110 alpha cells. The settings on record: Rattus norvegicus, 0.5 h, 30 minutes compound incubation, read-out: p-PKB/IC50_alpha. The test is classed as cell-based.
As for `CNC(=O)c1ccc(-c2ccc3ncc4c(c3c2)n(-c2cccnc2C)c(=O)n4C)cc1` [Example 2.4, N-Methyl-4-[3-methyl-1-(2-methyl-pyridin-3-yl)-2-oxo-2,3-dihydro-1H-imidazo[4,5-c]quinolin-8-yl]-benzamide], the pIC50 is 7.84. Under `Cc1ncccc1-n1c(=O)n(C)c2cnc3ccc(-c4cnc5[nH]ccc5c4)cc3c21` [Example 2.8, 3-Methyl-1-(2-methyl-pyridin-3-yl)-8-(1H-pyrrolo[2,3-b]pyridin-5-yl)-1,3-dihydro-imidazo[4,5-c]quinolin-2-one] stands 8.16; under `COCc1ncc(-c2ccc3ncc4c(c3c2)n(-c2cccnc2C)c(=O)n4C)cc1OC` [Example 2.30, 8-(5-Methoxy-6-methoxymethyl-pyridin-3-yl)-3-methyl-1-(2-methyl-pyridin-3-yl)-1,3-dihydro-imidazo[4,5-c]quinolin-2-one], 7.28.

Regarding `Cn1c(=O)n(-c2cccnc2F)c2c3cc(-c4cnc5[nH]ccc5c4)ccc3ncc21` [Example 6.3, 1-(2-Fluoro-pyridin-3-yl)-3-methyl-8-(1H-pyrrolo[2,3-b]pyridin-5-yl)-1,3-dihydro-imidazo[4,5-c]quinolin-2-one], the pIC50 was 7.86. Regarding `Cc1nc(F)ccc1-n1c(=O)n(C)c2cnc3ccc(-c4cncc(N5CCC5)c4)cc3c21` [Example 7.6, 8-(5-Azetidin-1-yl-pyridin-3-yl)-1-(6-fluoro-2-methyl-pyridin-3-yl)-3-methyl-1,3-dihydro-imidazo[4,5-c]quinolin-2-one], the pIC50 was 7.46. Under `COCc1ncc(-c2ccc3ncc4c(c3c2)n(-c2ccc(F)nc2C)c(=O)n4C)cc1OC` [Example 7.7, 1-(6-Fluoro-2-methyl-pyridin-3-yl)-8-(5-methoxy-6-methoxymethyl-pyridin-3-yl)-3-methyl-1,3-dihydro-imidazo[4,5-c]quinolin-2-one] stands 7.02; under `COc1cc(-c2ccc3ncc4c(c3c2)n(-c2ccc(F)nc2C)c(=O)n4C)cnc1CO` [Example 7.10, 1-(6-Fluoro-2-methyl-pyridin-3-yl)-8-(6-hydroxymethyl-5-methoxy-pyridin-3-yl)-3-methyl-1,3-dihydro-imidazo[4,5-c]quinolin-2-one], 6.91; under `COc1ccc(-n2c(=O)n(C)c3cnc4ccc(-c5cncc(N6CCC6)c5)cc4c32)c(OC)n1` [Example 8.11, 8-(5-Azetidin-1-yl-pyridin-3-yl)-1-(2,6-dimethoxy-pyridin-3-yl)-3-methyl-1,3-dihydro-imidazo[4,5-c]quinolin-2-one], greater than 8.34.

Turning to `COc1ccc(-n2c(=O)n(C)c3cnc4ccc(-c5cnc(C(OC)OC)c(OC)c5)cc4c32)c(OC)n1` [Example 8.13, 8-(6-Dimethoxymethyl-5-methoxy-pyridin-3-yl)-1-(2,6-dimethoxy-pyridin-3-yl)-3-methyl-1,3-dihydro-imidazo[4,5-c]quinolin-2-one], the pIC50 was 6.68. For `COc1ccc(-n2c(=O)n(C)c3cnc4ccc(-c5cnc(CO)c(OC)c5)cc4c32)c(OC)n1` [Example 8.14, 1-(2,6-Dimethoxy-pyridin-3-yl)-8-(6-hydroxymethyl-5-methoxy-pyridin-3-yl)-3-methyl-1,3-dihydro-imidazo[4,5-c]quinolin-2-one], the pIC50 was 7.46. Under `COc1cc(-c2ccc3ncc4c(c3c2)n(-c2ccc(N3CC(F)(F)C3)nc2C)c(=O)n4C)cnc1CO` [Example 24.4, 1-[6-(3,3-Difluoro-azetidin-1-yl)-2-methyl-pyridin-3-yl]-8-(6-hydroxymethyl-5-methoxy-pyridin-3-yl)-3-methyl-1,3-dihydro-imidazo[4,5-c]quinolin-2-one] stands 7.65; under `COc1cc(-c2ccc3ncc4c(c3c2)n(-c2ccc(N3CCCC3)nc2C)c(=O)n4C)cnc1CO` [Example 25.4, 8-(6-Hydroxymethyl-5-methoxy-pyridin-3-yl)-3-methyl-1-(2-methyl-6-pyrrolidin-1-yl-pyridin-3-yl)-1,3-dihydro-imidazo[4,5-c]quinolin-2-one], 7.56; under `CCNc1cc(-c2ccc3ncc4c(c3c2)n(-c2ccc(N3CCCC3)nc2C)c(=O)n4C)cnc1CO` [Example 25.5, 8-(5-Ethylamino-6-hydroxymethyl-pyridin-3-yl)-3-methyl-1-(2-methyl-6-pyrrolidin-1-yl-pyridin-3-yl)-1,3-dihydro-imidazo[4,5-c]quinolin-2-one], greater than 8.34. For the compound `CCNc1cc(-c2ccc3ncc4c(c3c2)n(-c2ccc(N(C)CCO)nc2C)c(=O)n4C)cnc1CO` [Example 26.3, 8-(5-Ethylamino-6-hydroxymethyl-pyridin-3-yl)-1-{6-[(2-hydroxy-ethyl)-methyl-amino]-2-methyl-pyridin-3-yl}-3-methyl-1,3-dihydro-imidazo[4,5-c]quinolin-2-one], the pIC50 was greater than 8.34. `Cc1nc(N2CCC(O)C2)ccc1-n1c(=O)n(C)c2cnc3ccc(-c4cnc(N)c(C(F)(F)F)c4)cc3c21` (stereo not shown) [Example 27.3, 8-(6-Amino-5-trifluoromethyl-pyridin-3-yl)-1-[6-(3-hydroxy-pyrrolidin-1-yl)-2-methyl-pyridin-3-yl]-3-methyl-1,3-dihydro-imidazo[4,5-c]quinolin-2-one]: the pIC50 was greater than 8.34.

Regarding `CCOc1ccc(-c2ccc3ncc4c(c3c2)n(-c2ccc(N3CCC(O)C3)nc2C)c(=O)n4C)cn1` (stereo not shown) [Example 27.4, 8-(6-Ethoxy-pyridin-3-yl)-1-[6-(3-hydroxy-pyrrolidin-1-yl)-2-methyl-pyridin-3-yl]-3-methyl-1,3-dihydro-imidazo[4,5-c]quinolin-2-one], the pIC50 was greater than 8.34.

Take `Cc1nc(N2CCC(O)C2)ccc1-n1c(=O)n(C)c2cnc3ccc(-c4cncc(C(C)(C)O)c4)cc3c21` (stereo not shown) [Example 27.5, 8-[5-(1-Hydroxy-1-methyl-ethyl)-pyridin-3-yl]-1-[6-(3-hydroxy-pyrrolidin-1-yl)-2-methyl-pyridin-3-yl]-3-methyl-1,3-dihydro-imidazo[4,5-c]quinolin-2-one]: the pIC50 was 6.79.

As to `CNc1ncc(-c2ccc3ncc4c(c3c2)n(-c2ccc(N3CCC(OC)C3)nc2C)c(=O)n4C)cn1` (stereo not shown) [Example 28.2, 1-[6-(3-Methoxy-pyrrolidin-1-yl)-2-methyl-pyridin-3-yl]-3-methyl-8-(2-methylamino-pyrimidin-5-yl)-1,3-dihydro-imidazo[4,5-c]quinolin-2-one], the pIC50 was 8.04. Turning to `COc1cc(-c2ccc3ncc4c(c3c2)n(-c2ccc(N3CCC(OC)C3)nc2C)c(=O)n4C)cnc1CO` (stereo not shown) [Example 28.3, 8-(6-Hydroxymethyl-5-methoxy-pyridin-3-yl)-1-[6-(3-methoxy-pyrrolidin-1-yl)-2-methyl-pyridin-3-yl]-3-methyl-1,3-dihydro-imidazo[4,5-c]quinolin-2-one], the pIC50 was 7.35. Under `Cc1nc(N2CC(O)C2)ccc1-n1c(=O)n(C)c2cnc3ccc(-c4cncc(C(C)(C)O)c4)cc3c21` [Example 29.1, 1-[6-(3-Hydroxy-azetidin-1-yl)-2-methyl-pyridin-3-yl]-8-[5-(1-hydroxy-1-methyl-ethyl)-pyridin-3-yl]-3-methyl-1,3-dihydro-imidazo[4,5-c]quinolin-2-one] stands 6.47; under `COc1cc(-c2ccc3ncc4c(c3c2)n(-c2ccc(N)nc2C)c(=O)n4C)cnc1CO` [Example 30.1, 1-(6-Amino-2-methyl-pyridin-3-yl)-8-(6-hydroxymethyl-5-methoxy-pyridin-3-yl)-3-methyl-1,3-dihydro-imidazo[4,5-c]quinolin-2-one], 7.27; under `CNc1ncc(-c2ccc3ncc4c(c3c2)n(-c2ccc(N3CC[C@H](O)C3)nc2C)c(=O)n4C)cc1Cl` [Example 32.4, 8-(5-Chloro-6-methylamino-pyridin-3-yl)-1-[6-((S)-3-hydroxy-pyrrolidin-1-yl)-2-methyl-pyridin-3-yl]-3-methyl-1,3-dihydro-imidazo[4,5-c]quinolin-2-one], 8.10. To `COc1cc(-c2ccc3ncc4c(c3c2)n(-c2ccc(N3CC[C@H](O)C3)nc2C)c(=O)n4C)cnc1CO` [Example 32.7, 8-(6-Hydroxymethyl-5-methoxy-pyridin-3-yl)-1-[6-((S)-3-hydroxy-pyrrolidin-1-yl)-2-methyl-pyridin-3-yl]-3-methyl-1,3-dihydro-imidazo[4,5-c]quinolin-2-one] belongs 7.21; to `CNc1ncc(-c2ccc3ncc4c(c3c2)n(-c2ccc(N3CC[C@@H](O)C3)nc2C)c(=O)n4C)cn1` [Example 34.1, 1-[6-((R)-3-Hydroxy-pyrrolidin-1-yl)-2-methyl-pyridin-3-yl]-3-methyl-8-(2-methylamino-pyrimidin-5-yl)-1,3-dihydro-imidazo[4,5-c]quinolin-2-one], 7.89; to `CCNc1cc(-c2ccc3ncc4c(c3c2)n(-c2ccc(N3CC(F)(F)C(F)(F)C3)nc2C)c(=O)n4C)cnc1CO` [Example 35.2, 8-(5-Ethylamino-6-hydroxymethyl-pyridin-3-yl)-3-methyl-1-[2-methyl-6-(3,3,4,4-tetrafluoro-pyrrolidin-1-yl)-pyridin-3-yl]-1,3-dihydro-imidazo[4,5-c]quinolin-2-one], 8.34.

For the origin of these results see patent US20100311714A1, “1H-IMIDAZO[4,5-c]QUINOLINONE COMPOUNDS” (priority 2009, published 2010).
